Assay results taken from patent publication US8802597B2, “Herbicidal pyrimidines” (E I du Pont de Nemours and Company, priority 2003, dated 2014).
Read-outs that look alike come from different tables or passages of the source.

Legend:
Experiment in all cases: Test C pre/postemergence
Assay type in all cases: in vivo
[1] = test system: johnsongrass (Sorghum halepense); details: Sorghum halepense; for pest or weed control at 62 g/ha: 62 g ai/ha; for pest or weed control at 125 g/ha: 125 g ai/ha; for pest or weed control at 250 g/ha: 250 g ai/ha; for pest or weed control at 500 g/ha: 500 g ai/ha
Summary of the method: (§1)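 Greenhouse pot test: seeds treated preemergence, or plants at 2–18 cm (1- to 4-leaf stage) treated postemergence, with compound in non-phytotoxic solvent plus surfactant. Visual rating versus untreated controls after 12–14 days, scale 0 (no effect) to 100 (complete control); dash means not tested.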

[2] = test system: common ragweed (Ambrosia elatior); details: Ambrosia artemisiifolia; for pest or weed control at 62 g/ha: 62 g ai/ha; for pest or weed control at 125 g/ha: 125 g ai/ha; for pest or weed control at 250 g/ha: 250 g ai/ha; for pest or weed control at 500 g/ha: 500 g ai/ha
Summary of the method: as §1

soybean (Glycine max) = details: Glycine max; for plant injury at 62 g/ha: 62 g ai/ha; for plant injury at 125 g/ha: 125 g ai/ha; for plant injury at 250 g/ha: 250 g ai/ha; for plant injury at 500 g/ha: 500 g ai/ha
Summary of the method: as §1

[3] = test system: velvetleaf (Abutilon theophrasti); details: Abutilon theophrasti; for pest or weed control at 62 g/ha: 62 g ai/ha; for pest or weed control at 125 g/ha: 125 g ai/ha; for pest or weed control at 250 g/ha: 250 g ai/ha; for pest or weed control at 500 g/ha: 500 g ai/ha
Summary of the method: as §1

[4] = test system: bermudagrass (Cynodon dactylon); details: Cynodon dactylon; for pest or weed control at 62 g/ha: 62 g ai/ha; for pest or weed control at 125 g/ha: 125 g ai/ha; for pest or weed control at 125 g/ha / pest or weed control at 250 g/ha / pest or weed control at 500 g/ha: scale 0 to 100; for pest or weed control at 250 g/ha: 250 g ai/ha; for pest or weed control at 500 g/ha: 500 g ai/ha
Summary of the method: as §1

[5] = test system: pigweed (Amaranthus retroflexus); details: Amaranthus retroflexus; for pest or weed control at 62 g/ha: 62 g ai/ha; for pest or weed control at 125 g/ha: 125 g ai/ha; for pest or weed control at 250 g/ha: 250 g ai/ha; for pest or weed control at 500 g/ha: 500 g ai/ha
Summary of the method: as §1

[6] = test system: lambsquarters (Chenopodium album); details: Chenopodium album; for pest or weed control at 62 g/ha: 62 g ai/ha; for pest or weed control at 125 g/ha: 125 g ai/ha; for pest or weed control at 250 g/ha: 250 g ai/ha; for pest or weed control at 500 g/ha: 500 g ai/ha
Summary of the method: as §1

kochia (Kochia scoparia) = details: Bassia scoparia; for pest or weed control at 62 g/ha: 62 g ai/ha; for pest or weed control at 125 g/ha: 125 g ai/ha; for pest or weed control at 250 g/ha: 250 g ai/ha; for pest or weed control at 500 g/ha: 500 g ai/ha
Summary of the method: as §1

[7] = test system: common (oilseed) sunflower (Helianthus annuus); details: Helianthus annuus, pre-emergence, Preemergence, read-out: Plant response rating, Sunflower
Summary of the method: as §1

[8] = test system: goosegrass (Eleusine indica); details: Eleusine indica; for pest or weed control at 62 g/ha: 62 g ai/ha; for pest or weed control at 125 g/ha: 125 g ai/ha; for pest or weed control at 250 g/ha: 250 g ai/ha; for pest or weed control at 500 g/ha: 500 g ai/ha
Summary of the method: as §1

[9] = test system: cocklebur (Xanthium strumarium); details: Xanthium strumarium; for pest or weed control at 125 g/ha: 125 g ai/ha; for pest or weed control at 250 g/ha: 250 g ai/ha; for pest or weed control at 500 g/ha: 500 g ai/ha
Summary of the method: as §1

[10] = post-emergence, Postemergence, scale 0 to 100 (0 no effect, 100 complete control), read-out: Johnsongrass plant response rating
[11] = post-emergence, Postemergence, scale 0 to 100, read-out: Plant response rating, Johnsongrass
[12] = pre-emergence, Preemergence, scale 0 to 100, read-out: Plant response rating, Johnsongrass
[13] = post-emergence, Postemergence, scale 0 to 100 (0 no effect, 100 complete control), read-out: Ragweed plant response rating
[14] = post-emergence, Postemergence, scale 0 to 100, read-out: Plant response rating, Ragweed
[15] = pre-emergence, Preemergence, scale 0 to 100, read-out: Plant response rating, Ragweed
[16] = post-emergence, Postemergence, scale 0 to 100 (0 no effect, 100 complete control), read-out: Soybean plant response rating
[17] = post-emergence, Postemergence, scale 0 to 100, read-out: Plant response rating, Soybean
[18] = pre-emergence, Preemergence, scale 0 to 100, read-out: Plant response rating, Soybean
[19] = post-emergence, Postemergence, scale 0 to 100 (0 no effect, 100 complete control), read-out: Velvetleaf plant response rating
[20] = post-emergence, Postemergence, scale 0 to 100, read-out: Plant response rating, Velvetleaf
[21] = pre-emergence, Preemergence, scale 0 to 100, read-out: Plant response rating, Velvetleaf
[22] = post-emergence, Postemergence, read-out: Plant response rating, Bermudagrass
[23] = pre-emergence, Preemergence, read-out: Plant response rating, Bermudagrass
[24] = post-emergence, Postemergence, scale 0 to 100 (0 no effect, 100 complete control), read-out: Pigweed plant response rating
[25] = post-emergence, Postemergence, scale 0 to 100, read-out: Plant response rating, Pigweed
[26] = pre-emergence, Preemergence, scale 0 to 100, read-out: Plant response rating, Pigweed
[27] = post-emergence, Postemergence, scale 0 to 100 (0 no effect, 100 complete control), read-out: Lambsquarters plant response rating
[28] = post-emergence, Postemergence, scale 0 to 100, read-out: Plant response rating, Lambsquarters
[29] = pre-emergence, Preemergence, scale 0 to 100, read-out: Plant response rating, Lambsquarters
[30] = post-emergence, Postemergence, scale 0 to 100 (0 no effect, 100 complete control), read-out: Kochia plant response rating
[31] = post-emergence, Postemergence, scale 0 to 100, read-out: Plant response rating, Kochia
[32] = pre-emergence, Preemergence, scale 0 to 100, read-out: Plant response rating, Kochia
[33] = post-emergence, Postemergence, scale 0 to 100 (0 no effect, 100 complete control), read-out: Goosegrass plant response rating
[34] = post-emergence, Postemergence, scale 0 to 100, read-out: Plant response rating, Goosegrass
[35] = pre-emergence, Preemergence, scale 0 to 100, read-out: Plant response rating, Goosegrass
[36] = post-emergence, Postemergence, scale 0 to 100, read-out: Plant response rating, Cocklebur
[37] = pre-emergence, Preemergence, scale 0 to 100, read-out: Plant response rating, Cocklebur

## Nc1nc(C2CC2)nc(C(=O)O)c1Br [Compound 8]
[1]; [10]
  pest or weed control at 62 g/ha: 30%
  pest or weed control at 125 g/ha: 35%
[1]; [11]
  pest or weed control at 250 g/ha: 45%
  pest or weed control at 500 g/ha: 85%
[1]; pre-emergence, Preemergence, scale 0 to 100, 0 no effect, 100 complete control, read-out: Plant response rating, Johnsongrass
  pest or weed control at 62 g/ha: 0%
[1]; [12]
  pest or weed control at 125 g/ha: 0%
  pest or weed control at 250 g/ha: 0%
  pest or weed control at 500 g/ha: 20%
[2]; [13]
  pest or weed control at 62 g/ha: 60%
  pest or weed control at 125 g/ha: 80%
[2]; [14]
  pest or weed control at 250 g/ha: 95%
  pest or weed control at 500 g/ha: 100%
[2]; pre-emergence, Preemergence, scale 0 to 100, 0 no effect, 100 complete control, read-out: Plant response rating, Ragweed
  pest or weed control at 62 g/ha: 100%
[2]; [15]
  pest or weed control at 125 g/ha: 100%
  pest or weed control at 250 g/ha: 100%
  pest or weed control at 500 g/ha: 100%
Soybean (Glycine max); [16]
  plant injury at 62 g/ha: 95%
  plant injury at 125 g/ha: 95%
Soybean (Glycine max); [17]
  plant injury at 250 g/ha: 100%
  plant injury at 500 g/ha: 100%
Soybean (Glycine max); pre-emergence, Preemergence, scale 0 to 100, 0 no effect, 100 complete control, read-out: Plant response rating, Soybean
  plant injury at 62 g/ha: 100%
Soybean (Glycine max); [18]
  plant injury at 125 g/ha: 100%
  plant injury at 250 g/ha: 100%
  plant injury at 500 g/ha: 100%
[3]; [19]
  pest or weed control at 62 g/ha: 60%
  pest or weed control at 125 g/ha: 70%
[3]; [20]
  pest or weed control at 250 g/ha: 85%
  pest or weed control at 500 g/ha: 95%
[3]; pre-emergence, Preemergence, scale 0 to 100, 0 no effect, 100 complete control, read-out: Plant response rating, Velvetleaf
  pest or weed control at 62 g/ha: 65%
[3]; [21]
  pest or weed control at 125 g/ha: 75%
  pest or weed control at 250 g/ha: 100%
  pest or weed control at 500 g/ha: 100%
[4]; post-emergence, Postemergence, scale 0 to 100 (0 no effect, 100 complete control), read-out: Bermudagrass plant response rating
  pest or weed control at 62 g/ha: 50%
[4]; [22]
  pest or weed control at 125 g/ha: 60%
  pest or weed control at 250 g/ha: 65%
  pest or weed control at 500 g/ha: 75%
[4]; pre-emergence, Preemergence, scale 0 to 100, 0 no effect, 100 complete control, read-out: Plant response rating, Bermudagrass
  pest or weed control at 62 g/ha: 100%
[4]; [23]
  pest or weed control at 125 g/ha: 100%
  pest or weed control at 250 g/ha: 100%
  pest or weed control at 500 g/ha: 100%
[5]; [24]
  pest or weed control at 62 g/ha: 70%
  pest or weed control at 125 g/ha: 75%
[5]; [25]
  pest or weed control at 250 g/ha: 100%
  pest or weed control at 500 g/ha: 100%
[5]; pre-emergence, Preemergence, scale 0 to 100, 0 no effect, 100 complete control, read-out: Plant response rating, Pigweed
  pest or weed control at 62 g/ha: 65%
[5]; [26]
  pest or weed control at 125 g/ha: 85%
  pest or weed control at 250 g/ha: 90%
  pest or weed control at 500 g/ha: 95%
[6]; [27]
  pest or weed control at 62 g/ha: 75%
  pest or weed control at 125 g/ha: 100%
[6]; [28]
  pest or weed control at 250 g/ha: 100%
  pest or weed control at 500 g/ha: 100%
[6]; pre-emergence, Preemergence, scale 0 to 100, 0 no effect, 100 complete control, read-out: Plant response rating, Lambsquarters
  pest or weed control at 62 g/ha: 0%
[6]; [29]
  pest or weed control at 125 g/ha: 20%
  pest or weed control at 250 g/ha: 90%
  pest or weed control at 500 g/ha: 100%
Kochia (Kochia scoparia); [30]
  pest or weed control at 62 g/ha: 95%
  pest or weed control at 125 g/ha: 100%
Kochia (Kochia scoparia); [31]
  pest or weed control at 250 g/ha: 100%
  pest or weed control at 500 g/ha: 100%
Kochia (Kochia scoparia); pre-emergence, Preemergence, scale 0 to 100, 0 no effect, 100 complete control, read-out: Plant response rating, Kochia
  pest or weed control at 62 g/ha: 50%
Kochia (Kochia scoparia); [32]
  pest or weed control at 125 g/ha: 85%
  pest or weed control at 250 g/ha: 100%
  pest or weed control at 500 g/ha: 100%
[7]; 62 g ai/ha, scale 0 to 100, 0 no effect, 100 complete control
  pest or weed control at 62 g/ha: 20%
[7]; 125 g ai/ha, scale 0 to 100
  pest or weed control at 125 g/ha: 40%
[7]; 250 g ai/ha, scale 0 to 100
  pest or weed control at 250 g/ha: 100%
[7]; 500 g ai/ha, scale 0 to 100
  pest or weed control at 500 g/ha: 100%
[8]; [33]
  pest or weed control at 62 g/ha: 0%
  pest or weed control at 125 g/ha: 0%
[8]; [34]
  pest or weed control at 250 g/ha: 45%
  pest or weed control at 500 g/ha: 60%
[8]; pre-emergence, Preemergence, scale 0 to 100, 0 no effect, 100 complete control, read-out: Plant response rating, Goosegrass
  pest or weed control at 62 g/ha: 0%
[8]; [35]
  pest or weed control at 125 g/ha: 0%
  pest or weed control at 250 g/ha: 35%
  pest or weed control at 500 g/ha: 45%
[9]; post-emergence, Postemergence, 62 g ai/ha, scale 0 to 100 (0 no effect, 100 complete control), read-out: Cocklebur plant response rating
  pest or weed control at 62 g/ha: 80%
[9]; post-emergence, Postemergence, scale 0 to 100 (0 no effect, 100 complete control), read-out: Cocklebur plant response rating
  pest or weed control at 125 g/ha: 100%
[9]; [36]
  pest or weed control at 250 g/ha: 100%
  pest or weed control at 500 g/ha: 100%
[9]; [37]
  pest or weed control at 125 g/ha: 85%
  pest or weed control at 250 g/ha: 100%
  pest or weed control at 500 g/ha: 100%
